Here are results for one compound from US9901637B2, “Vitamin D3 and analogs thereof for treating alopecia” (priority 2009, dated 2018).

Series [1] deals with chemotherapy-induced alopecia (CIA). The note with it: neonatal rats, i.p. chemotherapy, recorded 10 days after last dose. How it is done:
Specifically, Long Evans and Sprague Dawley rats with pups were purchased from Harlan Laboratories, Inc. They were housed and fed according to applicable animal handling rules and regulations. Pups were allowed to acclimate for 48 hours prior to the start of experiments. […] Rats were isolated from their littermates and mother for 6-hour periods of time. Subsequently, the treated area was cleaned with soap and water and pups were returned to their litters. On day 13, rats either received etoposide (1.5 mg/kg daily for 3 days) or cyclophosphamide (CTX) (37.5 mg/kg once) or combination cyclophosphamide (35 mg/kg once) and doxorubicin (2.5 mg/kg daily for 3 days). All chemotherapies were purchased from Sigma and were given intraperitoneally (i.p.) in a total volume of 0.1 mL. Alopecia was recorded 10 days after the last dose of chemotherapy.

For series [2] the test system is unchanged. Description: Alopecia in chloroleukemic rats receiving multi-course chemotherapy, topical calcitriol. The note with it: for Extent of Alopecia: number of rats with grade 4+: rats treated with Cyclophosphamide (CTX), 4+=75-100% alopecia. The text has this: Long Evans Rats (Harlan Laboratories, Inc) were 3 days old upon arrival. The weight of the animals was obtained upon arrival and every day until the conclusion of the experiments using an electronic scale (American Scientific Products TL 410s). Rats were housed for two days prior to the beginning of experiments. Animals were then randomized in four groups.
Treatments were started on day 6 after birth. […] Each application entailed rubbing an area of 2 cm^2 for 10 seconds with right index finger covered with a nitrile exam glove. After the completion of the treatments, each rat was individually separated for 6 hours. Subsequently each rat's head and back was washed with mild hand soap (Soft CIDE-EC from VWR International) and distilled water. Pups where then placed back with their mothers and taken back to the animal rooms. For the second anagen cycle, adult rats were placed back in their cages with their littermates and taken back to the animal rooms.
On day 23 after birth, a blood sample was taken from all rats and differentials were performed. Rats with leukemia were sacrificed while rats without leukemia were used for further experiments. A second differential was performed on day 31, and leukemic animals were sacrificed.
Vials of 1 mL were subdivided and kept in the refrigerator at 4° C. […] Unused preparations were disposed of.
For the second course of chemotherapy, rats received 20 mg/kg ADM on days 47 to 49 as described above.

Another series concerns MIAC51. Description: Survival (cure) rate of chloroleukemic rats after two rounds of chemotherapy. The note with it: rats treated with Cyclophosphamide (CTX), after Two Rounds of Chemotherapy. The class given is in vivo, Long Evans Rats. How it is done:
Animals were then randomized in four groups. All rats received MIAC51 as described below.
On day 5 after birth all rats received 1×105 MIAC51 intraperitoneally in 0.1 ml of serum free (SF) RPMI. MIAC51 were cultured in RPMI 1640 supplemented with L-glutamine and 10% fetal bovine serum at […] in a 5% CO2, 100% humidity incubator. Cells were grown to 50% confluency (1.5×106 ml) collected in 50 ml conical tubes, centrifuged at 600 g for 10 minutes at room temperature and resuspended in SF-RPMI at a concentration of 1×10^6/ml prior to injection.

As to `O=P1(N(CCCl)CCCl)NCCCO1` (centres unmarked) [CTX, cyclophosphamide], the “alopecia in rats receiving chemotherapy without calcitriol” value in series [1] is reported as “totally alopecic”. The “extent of alopecia (grade) in all rats receiving chemotherapy alone” value in series [2] (chloroleukemic Long Evans rats, after the first round of chemotherapy) is given as “+4”. Besides, the “Extent of Alopecia: number of rats with grade 4+” value in series [2] (after First Round of Chemotherapy) was determined as 40; in series [2] (after Second Round of Chemotherapy), 8. The “Survival Rate, % cured” value in the series on MIAC51 was found to be 20%.
